From patent EP4578857A1, “CRYPTOLEPINE SALT DERIVATIVE, AND PREPARATION METHOD THEREFOR AND USE THEREOF” (Nankai University, priority 2023, dated 2025)
Like-named read-outs stand apart in the source and are kept apart here.

Legend:
Type in all cases: in vivo
[1] = tested on: tobacco Mosaic virus (TMV); assay: Anti-TMV activity: live protection function; details: for antiTMV activity / TMV activity: 500µg/mL, Table 4 (all three modes); for antiTMV activity: compared with commercial Ningnanmycin; for TMV activity: compared with ribavirin; for inhibition at 500 µg/mL: Tobacco mosaic virus, read-out: Relative inhibition rate (%) Live protection function
Description: (§1) Determination of anti-tobacco Mosaic virus (TMV) activity by the following procedure:
(§2) The virus crude extract was centrifuged with polyethylene glycol at twice and refrigerated at 4°C for use. The absorbance of 260nm wavelength was determined by ultraviolet spectrophotometer, and the virus concentration was calculated according to the formula. Virus concentration(mg/ml) = (A260 × dilution ratio)(/E)^0.10 1cm^260nm . [formula]
(§3) After weighing, cryptolepine salt derivative, ningnanmycin and the original drug of ribavirin were dissolved in DMF to obtain 1×10^5µg/mL mother solution, and then diluted to the required concentration with 1‰ Tween 80 aqueous solution.
Select the 3-5 leaf stage of tobacco Xanthi nc with uniform growth, spray the whole plant, repeat each treatment 3 times, and set 1‰ Tween80 aqueous solution as control. 24h later, the leaf surface was coated with emery (500 mesh), the disease venom was dipped with a brush, and the whole leaf surface was gently rubbed twice along the direction of the branch pulse by using the brush, the leaf was supported by palm of hand, the virus concentration was 10µg/mL, and the leaf was washed by water after inoculation. After 3 days, the number of disease spots was recorded and the prevnetion and control effect was calculated.

[2] = tested on: tobacco Mosaic virus (TMV); assay: Anti-TMV activity: live treatment effect; details: for inhibition at 500 µg/mL: Tobacco mosaic virus, 72 h, read-out: Relative inhibition rate (%) Live treatment effect
Description: as §1, §2, §3
Select the 3-5 leaf stage of tobacco Xanthi nc with uniform growth, use a brush to vaccinate the virus in the whole leaf, the virus concentration is 10µg/mL, and the leaf was washed with running water after inoculation. After the leaves were dried, the whole plant was sprayed with test sample, repeated 3 times every treatment, and 1‰ Tween 80 aqueous solution was set as control. After 3 days, the number of disease spots was recorded and the prevnetion and control effect was calculated.

[3] = tested on: tobacco Mosaic virus (TMV); assay: Anti-TMV activity: living passivation activity test; details: for inhibition at 500 µg/mL: Tobacco mosaic virus, read-out: Relative inhibition rate (%) Living passivation activity test
Description: as §1, §2, §3
Select the 3-5 leaf stage of tobacco Xanthi nc with uniform growth, mix the test sample agent with the same volume of virus juice to passivate for 30min, friction inoculation, virus concentration 20µg/mL, the leaf was washed with running water after inoculation, repeat 3 times, set 1‰ Tween 80 aqueous solution as control. 3 days later, the number of disease spots was calculated. [formula]
Anti-tobacco Mosaic virus passivation activity test of all compounds was at a treatment dose of 500µg/mL. The positive control was the commercial anti-plant virus agent viriazole.

[4] = tested on: rice sheath blight strains; assay: Bactericidal activity test: resistance to rice sheath blight (live pot test); details: for pest or weed control at 400 µg/mL: Oryza sativa, 144 h; for bactericidal activity against rice sheath blight: result in words
Description: Bactericidal activity test, the determination procedure is as follows: Test of resistance to rice sheath blight: Select uniformly growing rice seedlings and spray them on the leaves at the set concentration, set a water sprayring group as blank control, every treatment was repeated twice. After 24h, the rice seedlings were inoculated with rice sheath blight strains and placed at room temperature (25±4°C) for normal management after inoculation. The prevention and control effect was investigated by visual inspection 6 days after inoculation.

[5] = Treatment dose 500 mg/L, tobacco Xanthi nc sprayed 24h before inoculation, virus 10µg/mL, disease spots counted after 3 days
[6] = Treatment dose 500 mg/L, tobacco Xanthi nc inoculated (virus 10µg/mL), then sprayed, disease spots counted after 3 days
[7] = Treatment dose 500 mg/L, sample mixed with virus juice for 30min, then inoculated on tobacco Xanthi nc, virus 20µg/mL, 3 days
[8] = 400mg/L leaf spray on rice seedlings, inoculated after 24h, visual inspection 6 days after inoculation
[9] = read-out: Resistance to rice sheath blight (%)/400mg/L
[10] = read-out: bactericidal activity against rice sheath blight
[11] = 400mg/L leaf spray on rice seedlings, inoculated after 24h, visual inspection 6 days after inoculation, read-out: Resistance to rice sheath blight (%)/400mg/L
[12] = live pot test, summary of Table 5 (400mg/L)

Row | Compound | inhibition at 500 µg/mL [1] | inhibition at 500 µg/mL [2] | inhibition at 500 µg/mL [3] | pest or weed control at 400 µg/mL [4, 9] | pest or weed control at 400 µg/mL [4, 11] | also measured
1 | C[n+]1c2ccccc2c(NCCCN)c2[nH]c3ccccc3c21.[I-] [Example 33] | – | – | – | – | – | antiTMV activity [1]: comparable to that of commercial Ningnanmycin; TMV activity [1]: better TMV activity than the ribavirin; Relative inhibition rate (%) Live protection function [1, 5]: 57.9±4.6%; Relative inhibition rate (%) Live treatment effect [2, 6]: 51.7±3.6%; Relative inhibition rate (%) Living passivation activity test [3, 7]: 49.8±3.1%; Resistance to rice sheath blight (%)/400mg/L [4, 8]: 40±0%
2 | Cc1ccc(S(=O)(=O)n2c3ccccc3c3c2cc2ccccc2[n+]3CC2CC2)cc1 [Example 18] | 45.6 ± 0.9% | 38.7 ± 2.4% | 40.8 ± 2.9% | 45 ± 5% | – | TMV activity [1]: better TMV activity than the ribavirin; pest or weed control at 400 µg/mL [4, 10]: > 50%
3 | Cc1ccc(S(=O)(=O)n2c3ccc(I)cc3c3c2cc2ccccc2[n+]3C)cc1.[Cl-] [Example 7] | – | – | – | – | – | TMV activity [1]: better TMV activity than the ribavirin; Relative inhibition rate (%) Live protection function [1, 5]: 44.5±0.4%; Relative inhibition rate (%) Live treatment effect [2, 6]: 43.0±3.5%; Relative inhibition rate (%) Living passivation activity test [3, 7]: 47.7±3.1%; Resistance to rice sheath blight (%)/400mg/L [4, 8]: 40±0%
4 | C[n+]1c2ccccc2c(NCC2CC2)c2[nH]c3ccccc3c21 [Example 28] | 20.5 ± 1.7% | 19.6 ± 0.2% | 25.3 ± 1.2% | – | 60% | pest or weed control at 400 µg/mL ([4]; live pot test, summary of Table 5 (400mg/L), read-out: bactericidal activity against rice sheath blight): > 50%
5 | Cc1ccc(S(=O)(=O)n2c3ccccc3c3c2cc2ccc(C)cc2[n+]3C)cc1 [Example 16] | 28.1 ± 4.5% | 30.1 ± 1.1% | 18.9 ± 0.8% | 95 ± 5% | – | pest or weed control at 400 µg/mL [4, 10]: > 95%
6 | C[n+]1c2ccccc2c(N2CCN(CCN)CC2)c2[nH]c3ccc(Cl)cc3c21 [Reference Example 2, reference compound] | 15.2 ± 1.1% | 18.1 ± 0.2% | 15.3 ± 2.1% | – | 0% | bactericidal activity against rice sheath blight [4, 12]: no activity
7 | CCCCCNc1c2ccccc2[n+](C)c2c1[nH]c1ccccc12 [Example 24] | – | – | – | – | – | Relative inhibition rate (%) Live protection function [1, 5]: 36.9±3.7%; Relative inhibition rate (%) Live treatment effect [2, 6]: 30.3±0.8%; Relative inhibition rate (%) Living passivation activity test [3, 7]: 35.2±1.0%; Resistance to rice sheath blight (%)/400mg/L [4, 8]: 30±0%
8 | COC(=O)c1ccc2c(c1)cc1c(c3ccccc3n1S(=O)(=O)c1ccc(C)cc1)[n+]2C [Example 15] | 15.6 ± 0.4% | 22.1 ± 0.2% | 20 ± 1% | 40% | – | –
9 | Cc1ccc(S(=O)(=O)n2c3ccccc3c3c2cc2ccccc2[n+]3C)cc1 [Example 1] | 18.9 ± 2.6% | 20.3 ± 1.1% | 18.5 ± 0.6% | 95 ± 5% | – | pest or weed control at 400 µg/mL [4, 10]: > 95%
10 | C[n+]1c2ccccc2c(NCC2CCNCC2)c2[nH]c3ccccc3c21.[I-] [Example 42] | – | – | – | – | – | Relative inhibition rate (%) Live protection function [1, 5]: 28.1±3.0%; Relative inhibition rate (%) Live treatment effect [2, 6]: 30.2±2.1%; Relative inhibition rate (%) Living passivation activity test [3, 7]: 25.1±0.2%; Resistance to rice sheath blight (%)/400mg/L [4, 8]: 25±5%
11 | Cn1c2c3cc(Br)ccc3nc-2cc2ccccc21 [Reference Example 1, 5-methyl-7-bromo 5H-indolo[3,2-b]quinoline, reference compound] | – | – | – | – | 0% | inhibition at 500 µg/mL [1, 5]: 15.1 ± 2%; inhibition at 500 µg/mL [2, 6]: 10.5 ± 3%; inhibition at 500 µg/mL [3, 7]: 10.2 ± 1.8%; bactericidal activity against rice sheath blight [4, 12]: no activity
12 | CN1CCC(CNc2c3ccccc3[n+](C)c3c2[nH]c2ccccc23)CC1 [Example 45] | 30.7 ± 2.6% | 28.1 ± 0.3% | 25.6 ± 1.1% | – | 30% | –
13 | CCCCC(CC)CNc1c2ccccc2[n+](C)c2c1[nH]c1ccccc12 (stereo not drawn) [Example 27] | 52.1 ± 2.8% | 46.3 ± 4.2% | 47.9 ± 1.5% | – | 30% | antiTMV activity [1]: comparable to that of commercial Ningnanmycin; TMV activity [1]: better TMV activity than the ribavirin
14 | Cc1ccc(S(=O)(=O)n2c3ccccc3c3c2cc2cc(F)ccc2[n+]3C)cc1 [Example 11] | 27.6 ± 1.4% | 30.1 ± 1.1% | 22.3 ± 1% | 40% | – | –
15 | C[n+]1c2ccccc2c(NCC2CCCCC2)c2[nH]c3ccccc3c21 [Example 30] | 20.9 ± 2.9% | 21.5 ± 1.1% | 30 ± 0.8% | – | 35 ± 5% | –
16 | Cc1ccc(S(=O)(=O)n2c3ccccc3c3c2cc2ccccc2[n+]3Cc2ccccc2)cc1 [Example 21] | 41.4 ± 3.9% | 32.3 ± 1.8% | 35.9 ± 4% | 40% | – | TMV activity [1]: better TMV activity than the ribavirin
17 | Cc1ccc(S(=O)(=O)n2c3ccccc3c3c2cc2ccc(Cl)cc2[n+]3C)cc1 [Example 17] | 30.2 ± 1.7% | 23.5 ± 2.1% | 33.1 ± 1.1% | 40% | – | –
18 | CN1CCCC(CNc2c3ccccc3[n+](C)c3c2[nH]c2ccccc23)C1 (stereo not drawn) [Example 46] | 44.7 ± 4% | 40.1 ± 0.9% | 46.3 ± 3.5% | – | 30% | TMV activity [1]: better TMV activity than the ribavirin
19 | C[n+]1c2ccccc2c(NCCCCN)c2[nH]c3ccccc3c21 [Example 34] | 50.3 ± 2.1% | 43.9 ± 2% | 41.2 ± 4.6% | – | 20% | antiTMV activity [1]: comparable to that of commercial Ningnanmycin; TMV activity [1]: better TMV activity than the ribavirin
20 | C[n+]1c2ccccc2c(NCC(C)(C)N)c2[nH]c3ccccc3c21 [Example 36] | 29.8 ± 2.1% | 30.1 ± 0.2% | 28.7 ± 1.1% | – | 35 ± 5% | –
21 | CNCCCNc1c2ccccc2[n+](C)c2c1[nH]c1ccccc12 [Example 38] | 35 ± 4.1% | 40.2 ± 1% | 30.7 ± 1.2% | – | 30% | –
22 | COc1ccc2c(c1)cc1c(c3ccccc3n1S(=O)(=O)c1ccc(C)cc1)[n+]2C [Example 10] | 17 ± 1% | 10.2 ± 0.7% | 19.1 ± 0.2% | 30% | – | –
23 | Cc1ccc(S(=O)(=O)n2c3ccccc3c3c2cc2cc(Cl)ccc2[n+]3C)cc1 [Example 12] | 23.4 ± 3.3% | 19.1 ± 1% | 20.3 ± 2.1% | 40% | – | –
24 | Cc1ccc(S(=O)(=O)n2c3ccc(C)cc3c3c2cc2ccccc2[n+]3C)cc1 [Example 2] | 26.5 ± 3% | 20.5 ± 0.9% | 25.3 ± 2.3% | 40% | – | –
25 | Cc1ccc(S(=O)(=O)n2c3ccc(C#N)cc3c3c2cc2ccccc2[n+]3C)cc1 [Example 8] | 18.8 ± 4.2% | 23.1 ± 0.5% | 18.6 ± 1.2% | 30% | – | –
26 | C[n+]1c2ccccc2c(NCCCC2CCCCC2)c2[nH]c3ccccc3c21 [Example 31] | 29.5 ± 1.3% | 28.9 ± 1.1% | 30.5 ± 0.2% | – | 25 ± 5% | –
